Measurements: publication PMC8472965, “BmK86-P1, a New Degradation Peptide with Desirable Thermostability and Kv1.2 Channel-Specific Activity from Traditional Chinese Scorpion Medicinal Material” (Toxins, 2021)
Positions of bridges follow the written chain, without caps; N, C: chain ends. Residues, ends and D or L forms follow the SMILES beside them.

How the values were obtained:
hKv1.2-R354A = biological target: T1, hKv1.2-R354A (Homo sapiens, UniProt P16389, R354A); experiment: Whole-cell patch clamp, hKv1.2 channel mutant R354A; type: cell-based; conditions: 100 nM peptide, HEK293T, mean ± S.E., n ≥ 3, SEM
T1 construct: expressed in transfected cells; host or cells: HEK293T
Method: (§1) To determine the functional sites of the hKv1.2 channel responsible for the selectivity of BmK86-P1, six hKv1.2 mutants were obtained based on sequence differences between the pore regions of the hKv1.2 and hKv1.1 channels (Figure 4A). Then, the activities of 100 nM BmK86-P1 on these six mutant channels were tested. […] The other three mutant channels (hKv1.2-D352E, hKv1.2-R354A and hKv1.2-P359S) still kept similar sensitivities toward BmK86-P1 compared with the wild-type hKv1.2 channel (Figure 4H,I,K,N).
(§2) All potassium channel expression vectors were given by others or constructed by ourselves. HEK293T cells were cultured in Dulbecco’s modified Eagle medium (Gibco, Pittsburgh, PA, USA) with 10% fetal bovine serum and penicillin/streptomycin (100 units/mL) in a 5% CO2 incubator at 37 °C. Potassium channel expression vectors and pEGFP-N1 were co-transfected into HEK293T cells using TurboFect in vitro Transfection Reagent (Thermo Scientific, Waltham, MA, USA) according to the manufacturer’s instructions. The potassium currents were recorded after transfection for 1 to 3 days.
(§3) The channel currents were measured and recorded by whole-cell patch clamp technology according to previously published references. […] The channel currents were recorded at room temperature (~25 °C) using an EPC 10 patch clamp amplifier. […]

Kv1.3 channel = conditions: read-out: IC50, inhibition of the current of Kv1.3 channel; cited from earlier work
Description: The BmK86 toxin gene was first discovered from the venom gland cDNA library of Mesobuthus martensii Karsch. It encodes a signal peptide with 22 amino acid residues and a mature toxin with 35 residues (Figure 6A). The stretch of six amino acids in the N-terminus of BmK86 was thought to be a signal peptide rather than the N-terminal portion of the mature peptide. […] BmK86 could inhibit the c ...

[1] = biological target: T2, hKv1.2-M3 chimeric channel (Homo sapiens, UniProt P16389, T383V/V381Y); experiment: Whole-cell patch clamp, chimeric channel hKv1.2-M3 (turret or filter region of hKv1.2 substituted by that of hKv1.1); type: cell-based; conditions: 100 nM peptide, HEK293T, mean ± S.E., n ≥ 3, SEM
T2 construct: expressed in transfected cells; host or cells: HEK293T
Description: The turret and filter region of potassium channels have different effects on the toxin binding for different scorpion toxins. To investigate the importance of these two regions of potassium channels in interacting with BmK86-P1, another two channel chimeras (i.e., hKv1.2-M2 and hKv1.2-M3) were constructed, in which the turret or the filter region of the hKv1.2 channel was substituted by the equivalent region of the hKv1.1 channel.
as §2
as §3, with “references. The internal patch pipette solution and the bath solution were prepared as previously described.” for “references.”

hKv1.2-D352E = biological target: T3, hKv1.2-D352E (Homo sapiens, UniProt P16389, D352E); experiment: Whole-cell patch clamp, hKv1.2 channel mutant D352E; type: cell-based; conditions: 100 nM peptide, HEK293T, mean ± S.E., n ≥ 3, SEM
T3 construct: expressed in transfected cells; host or cells: HEK293T
Method: as §1, §2, §3

hKv3.2 channel = biological target: T4, hKv3.2 channel (Homo sapiens, UniProt Q96PR1); experiment: Whole-cell patch clamp, hKv3.2 channel overexpressed in HEK293T cells; type: cell-based; conditions: 1 μM peptide, mean ± S.E., n ≥ 3, SEM
T4 construct: expressed in transfected cells; host or cells: HEK293T
T4 sequence (Q96PR1 1-638): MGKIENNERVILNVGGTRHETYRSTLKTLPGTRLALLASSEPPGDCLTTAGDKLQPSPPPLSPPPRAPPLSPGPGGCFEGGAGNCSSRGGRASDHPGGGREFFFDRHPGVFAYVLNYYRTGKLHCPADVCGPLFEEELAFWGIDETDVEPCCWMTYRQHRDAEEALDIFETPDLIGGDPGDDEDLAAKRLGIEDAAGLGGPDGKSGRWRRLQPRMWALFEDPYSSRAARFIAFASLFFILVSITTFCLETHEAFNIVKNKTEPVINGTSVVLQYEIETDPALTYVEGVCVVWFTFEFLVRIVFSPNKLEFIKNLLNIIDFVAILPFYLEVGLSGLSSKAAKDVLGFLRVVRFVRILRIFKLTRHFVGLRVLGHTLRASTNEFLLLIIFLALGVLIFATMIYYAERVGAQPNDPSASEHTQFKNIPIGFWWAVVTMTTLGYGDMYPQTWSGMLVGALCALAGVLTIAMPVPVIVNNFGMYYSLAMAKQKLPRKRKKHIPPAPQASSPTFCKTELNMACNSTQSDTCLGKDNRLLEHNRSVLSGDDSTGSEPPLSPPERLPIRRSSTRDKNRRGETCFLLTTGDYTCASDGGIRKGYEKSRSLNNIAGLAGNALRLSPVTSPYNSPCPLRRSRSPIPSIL
Method: To investigate the electrophysiological activities of BmK86-P1, the whole-cell patch clamp technique was applied to test the effects of BmK86-P1 on multiple potassium channels. The hKv1.1, hKv1.2, hKv1.3, hKv1.6, hKv3.2, mKv4.1, rKv4.2, rKv4.3 and hERG channels were overexpressed in HEK293T cells, then the inhibitory effects of BmK86-P1 at 1 μM on these potassium channels were measured. […] To further investigate the affinity of BmK86-P1 inhibiting the hKv1.2 channel, a dose-dependent study was performed by examining the inhibitory effects of different concentrations of BmK86-P1.
All potassium channel expression vectors were given by others or constructed by ourselves. HEK293T cells were cultured in Dulbecco’s modified Eagle medium (Gibco, Pittsburgh, PA, USA) with 10% fetal bovine serum and penicillin/streptomycin (100 units/mL) in a 5% CO2 incubator at 37 °C. […] The potassium currents were recorded after transfection for 1 to 3 days.
as §3
The ClampFit (Molecular Devices, Sunnyvale, CA, USA) and SigmaPlot software ([…], Chicago, IL, USA) were used to analyze the recorded data. […]

T2 sequence (P16389 whole entry V381Y/T383V): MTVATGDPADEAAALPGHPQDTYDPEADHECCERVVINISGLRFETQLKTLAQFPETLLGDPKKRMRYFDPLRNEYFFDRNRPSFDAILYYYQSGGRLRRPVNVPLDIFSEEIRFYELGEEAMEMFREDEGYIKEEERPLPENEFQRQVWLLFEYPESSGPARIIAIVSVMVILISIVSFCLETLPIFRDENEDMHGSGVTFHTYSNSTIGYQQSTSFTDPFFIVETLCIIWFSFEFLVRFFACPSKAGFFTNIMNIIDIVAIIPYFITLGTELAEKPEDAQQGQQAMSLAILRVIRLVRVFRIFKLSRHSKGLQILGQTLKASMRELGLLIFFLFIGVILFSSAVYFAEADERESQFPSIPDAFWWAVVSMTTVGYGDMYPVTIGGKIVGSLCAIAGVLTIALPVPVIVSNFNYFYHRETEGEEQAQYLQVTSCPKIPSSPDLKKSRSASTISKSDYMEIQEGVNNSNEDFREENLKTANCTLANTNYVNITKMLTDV
T1 sequence (P16389 whole entry R354A): as the sequence (P16389 whole entry V381Y/T383V) above, with R354A, Y381V, V383T counted along it
T3 sequence (P16389 whole entry D352E): as the sequence (P16389 whole entry V381Y/T383V) above, with D352E, Y381V, V383T counted along it

SMILES: CC[C@H](C)[C@@H]1NC(=O)[C@@H]2CSSC[C@H](NC(=O)[C@H](C)N)C(=O)N[C@@H](CO)C(=O)N[C@@H](CCCCN)C(=O)N3CCC[C@H]3C(=O)N[C@H]3CSSC[C@H](NC(=O)[C@H](CCCNC(=N)N)NC(=O)CNC(=O)[C@H](CC(N)=O)NC1=O)C(=O)N[C@@H](Cc1c[nH]cn1)C(=O)N[C@H](C(=O)N[C@@H](Cc1ccc(O)cc1)C(=O)N[C@@H](Cc1ccc(O)cc1)C(=O)O)CSSC[C@H](NC(=O)[C@H](Cc1ccc(O)cc1)NC(=O)[C@H](CCCCN)NC(=O)[C@H](CCCNC(=N)N)NC3=O)C(=O)N[C@@H]([C@@H](C)CC)C(=O)N[C@@H](CC(=O)O)C(=O)N[C@@H](CCCCN)C(=O)NCC(=O)N[C@@H](C)C(=O)N[C@@H](CCCNC(=N)N)C(=O)N[C@@H](CC(N)=O)C(=O)NCC(=O)N[C@@H](CCCCN)C(=O)N2 [BmK86-P1] (H-ACSKPCRKYCIDKGARNGKCINGRCHCYY-OH; disulfide 2-20, 6-25, 10-27 (inferred); N-terminus and C-terminus assumed)
- inhibition of hKv1.2-R354A channel currents (hKv1.2-R354A): 73.3 ± 1.3%
- IC50 (Kv1.3 channel): 597 ± 114 nM
- inhibition of hKv1.2-M3 chimeric channel currents [1]: 1.5 ± 0.6%
- inhibition of hKv1.2-D352E channel currents (hKv1.2-D352E): 74.8 ± 1.2%
- inhibition of hKv3.2 channel currents (hKv3.2 channel): 3.8 ± 0.7%
